Where a SMILES comes first, the peptide text is derived from it.
How the values were obtained:
[1] = test system: Musclebind Like Protein 1 (MBNL1); assay: MBNL1 protein expression in human skeletal muscle cells (hSKMC), HTRF; type: cell-based; conditions: 0.5 mg/ml, 48 hours, relative to basal control
Procedure: Musclebind Like Protein 1 (MBNL1) in Human Skeletal Muscle Cells (hSKMC)
An increase of MBNL-1 in muscle cells helps maintaining the tone of facial skin muscles. Thus, compounds able to enhance MBNL-1 can be used as a good approach for cosmetic treatment of sagging facial appearance.
Human skeletal muscle cells (hSKMC) were cultured at 100,000 cells in T25 flasks with growth medium. After 4 days, cells reached around 80% of confluency and were seeded at 150,000 cells per well in 12-well plates in growth medium. Cells were incubated for 72 hours and then they were changed to differentiation medium and incubated during 48 hours. At the end of this period, cells were treated with defined peptides (0.5 mg/ml) and with medium alone for control conditions during 48 hours in differentiation medium. Cells were also treated with 2 mM of ketoprofen as a positive control.
After the incubation period, cells were lysed and frozen at −80 °C. For total protein quantification protein extract was measured by Bicinchoninic Acid (BCA) method. MBNL1 protein detection was performed by Homogeneous Time Resolved Fluorescence (HTRF) technology. Normalization of MBNL1 levels were performed by total protein quantification for each condition. Results are expressed as a relative MBNL1 protein level respect to control conditions. At least 3 replicates were carried out per condition.

EDA-Fn = assay: Myofibroblast marker EDA-Fn by immunofluorescence; type: cell-based, human; conditions: 0.01 mg/ml; basal control = 100.0, MES = 135.7
Procedure: EDA-Fn is an isoform of fibronectin, which serves as marker for the presence of myofibroblasts.
After the experimental protocol described in EXAMPLE 8, recovery of the cells was performed by the extraction of cells from the 3D culture and their reseeding on glass coverslips. To recover cells, the collagen hydrogel was digested in agitation at 37 °C with a collagenase solution. After the digestion, cycles of centrifugation and washing were performed to eliminate collagen debris. Then, cells were seeded on coverslips in replicated as in the conditions of the 3D cultures of EXAMPLE 8. For future fluorescence analysis, cells were seeded on glass coverslips previously coated with collagen at a density of 3×10^5 fibroblasts/cm^2, let attach overnight and fixed with 4% PFA.
Glass coverslips were used to perform EDA-Fn immunofluorescence, a marker of myofibroblasts. EDA-Fn immunofluorescence was performed in control samples (with or without MES) and after peptide treatment (PEP-1 0.01 mg/ml). Briefly, cells attached to coverslips were permeabilized by 0.5% Triton X-100 in PBS for 10 minutes at room temperature. Then, blocking solution (4% BSA in PBS) was added for 2 hours. […] Finally, green fluorescence intensity was quantified in Operetta (PerkinElmer) for each condition and normalized by the number of nuclei. […]

Compound: CC(C)C[C@H](N)C(=O)N1CCC[C@H]1C(=O)N[C@H](C(=O)N[C@H](C(=O)O)[C@@H](C)O)C(C)C [PEP-1, H-Leu-Pro-Val-Thr-OH] (H-LPVT-OH)
- % MBNL1 vs Basal control [1]: 213.0%
- Fold induction of EDA-Fn as myofibroblast marker, % Fold induction (FI) MEAN ± SEM (EDA-Fn): 172.3 ± 14.36%
